Assay results: the Deep4Chem optical property database
Blank lines part the entries; values can stand above or below the compound they belong to.

Test: solvent given as SMILES

SMILES: Cc1c2oc3c(C)c(N)cc(C(=O)NC4OC(=O)C(C(C)C)N(C)C(=O)CN(C)C(=O)C5CCCN5C(=O)C(C(C)C)NC4=O)c3nc-2c(C(=O)NC2OC(=O)C(C(C)C)N(C)C(=O)CN(C)C(=O)C3CCCN3C(=O)C(C(C)C)NC2=O)c(N)c1=O (centres undefined)
fluorescence lifetime (in C1CCCCC1): 1.07 ns | fluorescence lifetime (in CC#N): 1.54 ns | fluorescence lifetime (in CC(=O)O): 0.49 ns | fluorescence lifetime (in CC(C)=O): 0.93 ns | fluorescence lifetime (in CCCCO): 1.5 ns | fluorescence lifetime (in CCCCOC(C)=O): 1.1 ns | fluorescence lifetime (in CCCO): 1.34 ns | fluorescence lifetime (in CCN(CC)CC): 0.62 ns | fluorescence lifetime (in CCO): 1.22 ns | fluorescence lifetime (in CCOC(C)=O): 1.19 ns | fluorescence lifetime (in CO): 0.5 ns | fluorescence lifetime (in CS(C)=O): 1.8 ns | fluorescence lifetime (in Cc1ccccc1): 1.23 ns | fluorescence lifetime (in ClC(Cl)Cl): 1.02 ns | fluorescence lifetime (in ClCCCl): 1.16 ns | fluorescence lifetime (in O): 0.75 ns | fluorescence lifetime (in O=[N+]([O-])c1ccccc1): 0.37 ns | fluorescence lifetime (in [2H]O[2H]): 1.08 ns | fluorescence lifetime (in c1ccccc1): 1.22 ns | fluorescence lifetime (in c1ccncc1): 1.53 ns

SMILES: Cc1ccc2nc3c(=O)[nH]c(=O)[nH]c3nc2c1
fluorescence lifetime (in CC#N): 0.4 ns | fluorescence lifetime (in ClCCCl): 0.32 ns

SMILES: Cc1nc(-c2ccc(N3c4ccccc4C(c4ccccc4)(c4ccccc4)c4ccccc43)cc2)cc(-c2ccc(N3c4ccccc4C(c4ccccc4)(c4ccccc4)c4ccccc43)cc2)n1
fluorescence lifetime (in O=P(c1ccccc1)(c1ccccc1)c1ccc2oc3ccc(P(=O)(c4ccccc4)c4ccccc4)cc3c2c1): 11 ns

SMILES: CCC1(CC)c2cc(B(c3c(C)cc(C)cc3C)c3c(C)cc(C)cc3C)ccc2-c2c1c1c(c3c2C(CC)(CC)c2cc(N(c4ccccc4)c4ccccc4)ccc2-3)C(CC)(CC)c2cc(N(c3ccccc3)c3ccccc3)ccc2-1
fluorescence lifetime (in C1CCOC1): 14.4 ns

SMILES: CC1(C)c2cc(C#N)ccc2-c2ccc(N3c4ccccc4Oc4ccccc43)cc21
fluorescence lifetime (in C1CCCCC1): 1.89 ns | fluorescence lifetime (in C1CCOC1): 9.74 ns | fluorescence lifetime (in CC#N): 1.23 ns | fluorescence lifetime (in Cc1ccccc1): 4.94 ns | fluorescence lifetime (in ClC(Cl)Cl): 11.6 ns

SMILES: CC1=C(c2cccs2)C(C)=[N+]2C1=C(c1ccc(O)cc1)c1c(C)c(-c3cccs3)c(C)n1[B-]2(F)F
fluorescence lifetime (in Cc1ccccc1): 3.8 ns

SMILES: CCN(CC)c1ccc2c(c1)C(C)(C)C(=O)C=C2
fluorescence lifetime (in O): 2.56 ns

SMILES: c1cc2c3c(c1)-c1ccc4c5c(ccc(c15)B3c1ccc3c5c(ccc-2c15)CC3)CC4
fluorescence lifetime (in Cc1ccccc1): 5.28 ns

SMILES: CN(C)c1ccc2nc(/C=C/c3ccccc3)c(=O)oc2c1
fluorescence lifetime (in C1CCCCC1): 2.82 ns | fluorescence lifetime (in C1COCCO1): 3.52 ns | fluorescence lifetime (in CC#N): 3.95 ns | fluorescence lifetime (in CC(C)=O): 3.82 ns | fluorescence lifetime (in CCCCCCC): 2.8 ns | fluorescence lifetime (in CCO): 3.77 ns | fluorescence lifetime (in CCOC(C)=O): 3.58 ns | fluorescence lifetime (in CN(C)C=O): 3.65 ns | fluorescence lifetime (in CS(C)=O): 3.58 ns | fluorescence lifetime (in Cc1ccccc1): 3 ns | fluorescence lifetime (in ClC(Cl)Cl): 3.74 ns | fluorescence lifetime (in ClCCl): 3.83 ns

SMILES: c1ccc(Nc2nc(Nc3ccccc3)nc(Nc3cc4ccc5cccc6ccc(c3)c4c56)n2)cc1
fluorescence lifetime (in CCCCCCC): 102 ns

SMILES: F[B-]12Oc3ccccc3-c3c4[n+]5c(c([n+]31)-c1ccccc1O2)-c1ccccc1O[B-]5(F)Oc1ccccc1-4
fluorescence lifetime (in ClCCl): 4.52 ns

SMILES: CC1(C)CC(/C=C/c2ccc(N3CCOCCOCCOCCOCC3)cc2)=CC(=C(C#N)C#N)C1
fluorescence lifetime (in CCO): 0.79 ns

SMILES: c1ccc(-n2cccc2)cc1
fluorescence lifetime (in CC#N): 3.6 ns | fluorescence lifetime (in CCCCCC): 3.5 ns

Now from value to compound:

fluorescence lifetime (in ClCCl): 1.33 ns
SMILES: COc1ccc2c(c1)CCC1=C(C#Cc3cc4ccccc4c4ccccc34)O[B-](F)(F)[O+]=C12

fluorescence lifetime (in ClC(Cl)Cl): 10.9 ns
SMILES: O=C1c2ccccc2-c2ccc(N3CCOCC3)c3cccc1c23

fluorescence lifetime (in C1CCOC1): 1.2 ns
SMILES: CC(=O)c1ccc(-c2ccc3c(c2)C(=O)c2cc(-c4ccc(C(C)=O)cc4)ccc2-3)cc1

fluorescence lifetime (in C1CCOC1): 4.42 ns
SMILES: COc1ccc(-c2cc3c(cc2OC)-c2c(c4c(c5c2-c2cc(OC)c(-c6ccc(OC)cc6)cc2C5)C(=O)N(CCC(C)C)C4=O)C3)cc1

fluorescence lifetime (in CC#N): 1.16 ns
SMILES: COc1cc2cc(C#Cc3ccc(/C=C(\C#N)C(=O)O)cc3)c(=O)oc2cc1OC

fluorescence lifetime (in C1COCCO1): 0.33 ns | fluorescence lifetime (in CC#N): 0.76 ns | fluorescence lifetime (in CCCCCC): 0.34 ns | fluorescence lifetime (in CCCCCCC): 0.35 ns | fluorescence lifetime (in CCCO): 0.6 ns | fluorescence lifetime (in CCOC(C)=O): 0.38 ns | fluorescence lifetime (in CS(C)=O): 1.1 ns | fluorescence lifetime (in ClC(Cl)Cl): 0.38 ns | fluorescence lifetime (in ClCCl): 0.46 ns
SMILES: COc1ccc(C#Cc2ccc(C#N)cc2)cc1

fluorescence lifetime (in CS(C)=O): 4.4 ns
SMILES: CN(C)c1ccc2cc3c(cc2c1)OCCN=C3

fluorescence lifetime (in CC#N): 4.1 ns | fluorescence lifetime (in CCO): 3.99 ns | fluorescence lifetime (in CN(C)C=O): 3.74 ns | fluorescence lifetime (in O): 4.2 ns
SMILES: COC(=O)c1ccccc1-c1c2ccc(=[NH2+])cc-2oc2cc(N)ccc12

fluorescence lifetime (in CC#N): 0.63 ns
SMILES: Cc1cc2nc3c(=O)[nH]c(=O)n(C)c3nc2cc1C

fluorescence lifetime (in CC1CCCCC1): 0.609 ns | fluorescence lifetime (in CC#N): 1.19 ns | fluorescence lifetime (in CO): 2.17 ns
SMILES: COC(=O)C(Cc1ccc2oc(-c3ccncc3)nc2c1)NC(=O)OC(C)(C)C (centres undefined)

fluorescence lifetime (in ClC(Cl)Cl): 1.9 ns
SMILES: COc1ccc(-c2oc3cccc4c5c(-c6ccc(OC)c(OC)c6)c(=N)oc6cccc(c2c34)c65)cc1OC

fluorescence lifetime (in ClCCl): 5.8 ns
SMILES: COc1ccccc1C1=[N+]2C(=C(c3ccccc3)c3c4ccccc4c(-c4ccccc4OC)n3[B-]2(F)F)c2ccccc21

fluorescence lifetime (in ClCCl): 3.1 ns
SMILES: CCN(CC)c1ccc2cc(C#N)/c(=N\C(=O)C(C)C)oc2c1

fluorescence lifetime (in C1CCCCC1): 17.7 ns
SMILES: COc1ccc(-c2ccc(OC)cc2)cc1

fluorescence lifetime (in C1CCOC1): 6.9 ns
SMILES: COc1ccc(C(=Cc2ccc(C#N)cc2)c2ccc(OC)cc2)cc1

fluorescence lifetime (in CS(C)=O): 10.6 ns | fluorescence lifetime (in O): 16.7 ns
SMILES: Cn1c2ccc(S(=O)(=O)O)cc2c(=O)c2cc(S(=O)(=O)O)ccc21
